# Reference: patent US8067422B2, “Crystal form of phenylamino pyrimidine derivatives” (Natco Pharma Limited, priority 2008, dated 2011)
# “Also recorded” adds a separate entry of the source. Counter-ions that a name gives are not always drawn.
# Key:
# [1] = Thermodynamic stability of crystal forms at room temperature; assay type: physicochemical
# Source text: This is indicative of the greater stability of the Form-III crystal form.
# [2] = Stability of Form-III crystal form under accelerated stress conditions in bulk and formulated capsule; assay type: physicochemical
# [3] = Heat stability of Form-III crystal form (XRPD after heating); assay type: physicochemical; conditions: for Polymorph form detected after heating: 6 hours, XRPD
# Source text: Pure Form-III crystal form (1 gm) prepared by the present process was placed in a boiling tube and heated gradually in oil bath. Then the substance was examined by XRPD.
# [4] = tested on: K562 luciferase expressing cells; assay: Leukemic survival study in nude mice implanted with K562 luciferase expressing cells; assay type: in vivo
# Source text: K562 luciferase expressing cells were implanted intraperitoneally into nude mice; the mice were scanned using the xenogeny IVIS image station after ip injections of luciferin does determine implantations. Drug treatment was started as in previous studies day 15 after implantation. The animals were given treatment till day 42, after which drug treatment was stopped and survival of the animals determined as per the animal care regulations. […] Drug treatment was withdrawn on day 42 post implantation and survival of animals determined.
# [5] = tested on: K562 cells; assay: Spleenic enlargement and spleen Crk immunocytochemistry in K562 implanted nude mice; assay type: in vivo; conditions: ip injections
# Procedure: Control mice were sacrificed on day 42 when secondary leukemia symptoms were observed, such as abdominal swelling and lack of circulation in the peripherals causing loss of digits with red spots under the skin surface. Spleen and any secondary tumors were harvested, fixed in formaldehyde and paraffin embedded as per standard protocols. Paraffin section were obtained and processed for immunocytochemistry. The rehydrated sections were treated with 0.3% H2O2 to inactivate any native peroxidases prior to immuno-probing. The sections were blocked with filter sterilized (0.22 μm) 1% BSA-PBS at room temperature for 1 h. Following blocking, the sections were immuno-probed with a human specific anti-Crk monoclonal primary antibody raised in rabbit against a synthetic peptide corresponding to residues in the SH2 domain, near the N-term of human CrkL protein (Abcam, Cambridge, Mass., USA) in 1% BSA-PBS overnight. Secondary antibody (anti-rabbit) conjugated to HRP was used to detect the presence of primary antibody. The sections were briefly rinsed three times in PBS solution after immuno-probing with secondary antibody, and DAB HRP substrate was added per manufacture's instructions (Sigma St Louis Mo. USA). The reaction was allowed to proceed until sharp contrast between positive and negative controls was observed. For negative controls primary antibody were eliminated. Leukemic mice spleen served as positive controls.
# Mice were sacrificed after a decrease in LGI was observed and spleen harvested. […] Control mice also developed random subcutaneous tumors showing Crk expression, indicative of the presence of K562 cells.
# [6] = tested on: K562 cells; assay: Anti-CML activity in nude mice implanted with K562 cells (leukemia growth index); assay type: in vivo; conditions: ip injections
# Source text: Nude mice (nu/nu) were implanted with K562 cells (1×10^6) via tail vein.
# Blood was drawn via the tail vein. Quantitative analysis of LGI was graphically represented.
# [7] = tested on: 4910 glioma cells; assay: Matrigel invasion assay (modified Boyden chamber), 4910; assay type: cell-based, human
# Procedure: (§1) The in vitro invasiveness of 4910, 5310 and U87 glioma cells and MDAMB231 and ZR71 breast cancer cells in the presence of specified concentrations of compounds were assessed using a modified Boyden chamber assay. Cells were treated with these compounds for 48 h. 1×10^6 cells were suspended in 600 μl of serum-free medium supplemented with 0.2% BSA and placed in the upper compartment of the transwell chambers (Corning Costar Fischer Scientific Cat #07-200-158, Pittsburgh Pa.) coated with Matrigel (0.7 mg/ml). The lower compartment of the chamber was filled with 200 μl of serum medium and the cells were allowed to migrate for 24 h. After incubation, the cells were fixed and stained with Hema-3 and quantified as previously described (Mohanam et al. 1993). The migrated cells were imaged microscopically to determine the reduction in invasiveness induced by the compounds of this invention.
# [8] = tested on: ZR71 breast cancer cells; assay: Matrigel invasion assay (modified Boyden chamber), ZR-71; assay type: cell-based
# Procedure: as §1
# [9] = tested on: 5310 glioma cells; assay: Matrigel invasion assay (modified Boyden chamber), 5310; assay type: cell-based
# Procedure: as §1
# [10] = tested on: MDAMB231 breast cancer cells; assay: Matrigel invasion assay (modified Boyden chamber), MDA-MB-231; assay type: cell-based
# Procedure: as §1
# [11] = tested on: 4910 human glioma xenograft cells; assay: Glioma radiation study, nude mice intracranially implanted with 4910 cells; assay type: in vivo; conditions: of 10 animals; without radiation; day 40 post implantation
# Procedure: Nude mice were intracranially implanted with 4910 human glioma xenograft cells (1×10^6 cells). Ten days after implantation mice were treated with AN019, AN024 or temozolomide with or without radiation (5 Gy/week). The experiment was terminated at day 40 post implantation.
# [12] = tested on: U87 glioma cells; assay: Matrigel invasion assay (modified Boyden chamber), U87; assay type: cell-based
# Procedure: as §1
# [13] = drug treatment withdrawn on day 42
compound,measurement,setting,value
"Cc1ccc(NC(=O)c2cc(C(F)(F)F)cc(C(F)(F)F)c2)cc1Nc1nccc(-c2cccnc2)n1 [Form-I, (3,5-bis trifluoromethyl)-N-[4-methyl-3-(4-pyridin-3yl-pyrimidin-2ylamino)-phenyl]-benzamide]",Stability of crystal form,[1],metastable
"Cc1ccc(NC(=O)c2cc(C(F)(F)F)cc(C(F)(F)F)c2)cc1Nc1nccc(-c2cccnc2)n1 [Form-II, (3,5-bis trifluoromethyl)-N-[4-methyl-3-(4-pyridin-3yl-pyrimidin-2ylamino)-phenyl]-benzamide]",Stability of crystal form,[1],metastable
"Cc1ccc(NC(=O)c2cc(C(F)(F)F)cc(C(F)(F)F)c2)cc1Nc1nccc(-c2cccnc2)n1 [Form-III, (3,5-bis trifluoromethyl)-N-[4-methyl-3-(4-pyridin-3yl-pyrimidin-2ylamino)-phenyl]-benzamide]","Polymorph content of bulk compound of formula I, polymorph form detected",[2]; 0 Month at 40 ± 2° C./75 ± 5% RH,Form-III
same,"Polymorph content of bulk compound of formula I, polymorph form detected",[2]; 1 Month at 40 ± 2° C./75 ± 5% RH,Form-III
same,"Polymorph content of bulk compound of formula I, polymorph form detected",[2]; 2 Months at 40 ± 2° C./75 ± 5% RH,Form-III
same,"Polymorph content of bulk compound of formula I, polymorph form detected",[2]; 3 Months at 40 ± 2° C./75 ± 5% RH,Form-III
same,"Polymorph content of bulk compound of formula I, polymorph form detected",[2]; 6 Months at 40 ± 2° C./75 ± 5% RH,Form-III
same,Polymorph form detected after heating,[3]; 110° C.,Form-III
same,Polymorph form detected after heating,[3]; 120° C.,Form-III
same,Polymorph form detected after heating,[3]; 130° C.,Form-III
same,Heat stability,[3]; heated at 130° C. for 6 hours,non-metastable and stable; also recorded: stable to heat
same,Stability of crystal form,[1],thermodynamically stable
"Cc1ccc(NC(=O)c2ccc(CN3CCN(C)CC3)cc2)cc1Nc1nccc(-c2cccnc2)n1 [Imatinib, Imatinib mesylate, reference compound]","Blast cell count from blood smears, effectiveness after withdrawal of drug treatment",[4]; [13],ineffective
same,Leukemic symptoms after treatment withdrawal,[4]; [13],reoccurrences of leukemic symptoms
same,Mortality,"[4]; treatment day 15 to day 42, then withdrawn, 10 animals","mortality on day 55, 56, 57 and 58"
same,Crk expression in spleen (immunohistochemistry),[5],few colonies with low to undetectable expression levels of Crk; also recorded: localized expression regions of Crk expression
same,Spleenic enlargement (gross observation),[5],slight spleenic enlargement
same,"Physiological, phenotypic or behavioral abnormality",[6],"no abnormal physiological, phenotypic or behavioral abnormality"
Cn1nnc2c(C(N)=O)ncn2c1=O [Temozolomide],±Change in invasion after radiation,[7]; 4910,−22%
same,+Radiation % Invasion,"[7]; 4910, with radiation, 48 h treatment",73%
same,−Radiation % Invasion,"[7]; 4910, without radiation, 48 h treatment",95%
same,±Change in invasion after radiation,[8]; ZR-71,−5%
same,+Radiation % Invasion,"[8]; ZR-71, with radiation, 48 h treatment",65%
same,−Radiation % Invasion,"[8]; ZR-71, without radiation, 48 h treatment",70%
same,±Change in invasion after radiation,[9]; 5310,+13%
same,+Radiation % Invasion,"[9]; 5310, with radiation, 48 h treatment",63%
same,−Radiation % Invasion,"[9]; 5310, without radiation, 48 h treatment",50%
same,±Change in invasion after radiation,[10]; MDA-MB-231,−13%
same,+Radiation % Invasion,"[10]; MDA-MB-231, with radiation, 48 h treatment",49%
same,−Radiation % Invasion,"[10]; MDA-MB-231, without radiation, 48 h treatment",62%
same,Animals cured / complete absence of intracranial tumours,[11],3 animals
same,±Change in invasion after radiation,[12]; U87,+3%
same,+Radiation % Invasion,"[12]; U87, with radiation, 48 h treatment",93%
same,−Radiation % Invasion,"[12]; U87, without radiation, 48 h treatment",90%
